Laboratory results taken from patent US7968526B2, “Antisense oligonucleotides directed to ribonucleotide reductase R2 and uses thereof in the treatment of cancer” (Lorus Therapeutics Inc., priority 2003, dated 2011).

Experiment: Tissue distribution in the rat (CE method)
Assay type: in vivo
Protocol: The toxicokinetics and tissue distribution of SEQ ID NO:1 (and related oligonucleotide metabolites obtained from exonuclease-mediated chain shortening) were determined in rats and monkeys. In addition to investigating the pharmacokinetics and tissue distribution of SEQ ID NO:1, the purpose of the studies was to correlate adverse effects in the animal studies to the concentrations of SEQ ID NO:1 (and metabolites) in tissue and blood. A capillary electrophoresis (CE) method was used to measure the concentrations of SEQ ID NO:1 (and metabolites) in plasma and tissues.
The concentrations of SEQ ID NO:1 (and related n+1, n−1 to n−15 oligonucleotide metabolites) in the following rat and monkey tissues were measured by a validated CE method (Southwest Bio-Labs, Inc.): kidney, liver, spleen, heart, lung, bone marrow (rat), lymph nodes (monkey) and brain tissues. The tissue samples were collected from the designated animals as described in the 21-day toxicity studies: rats, administered bolus intravenous injections of SEQ ID NO:1 every other day at 2, 10, or 50 mg/kg; and monkeys administered SEQ ID NO:1 by continuous intravenous infusion at 2, 10, or 50 mg/kg/day.

[1] = 2 mg/kg bolus i.v. every other day, 4 hrs post first dose
[2] = 2 mg/kg bolus i.v. every other day, 4 hrs post last dose
[3] = 2 mg/kg bolus i.v. every other day, 48 hrs post first dose
[4] = 10 mg/kg bolus i.v. every other day, 4 hrs post first dose
[5] = 10 mg/kg bolus i.v. every other day, 4 hrs post last dose
[6] = 10 mg/kg bolus i.v. every other day, 48 hrs post first dose
[7] = 50 mg/kg bolus i.v. every other day, 4 hrs post first dose
[8] = 50 mg/kg bolus i.v. every other day, 4 hrs post last dose
[9] = 50 mg/kg bolus i.v. every other day, 48 hrs post first dose

5′-GGCTAAATCGCTCCACCAAG-3′ (all phosphorothioate, sugars by position and methylation of C not given here) [SEQ ID NO: 1, fully phosphorothioated antisense oligonucleotide that hybridizes to the coding region of R2 mRNA]
Rank order of tissue concentrations: kidney>liver>bone marrow>spleen>heart>lung
Mean Concentration SEQ ID NO: 1, Bone Marrow [1]: BDL (below detectable limits (1 μg/g rat; 0.2 μg/g monkey))
Mean Concentration SEQ ID NO: 1, Brain [1]: BDL (below detectable limits (1 μg/g rat; 0.2 μg/g monkey))
Mean Concentration SEQ ID NO: 1, Heart [1]: 0.8 µg/g
Mean Concentration SEQ ID NO: 1, Kidney [1]: 6.7 µg/g
Mean Concentration SEQ ID NO: 1, Liver [1]: 6.9 µg/g
Mean Concentration SEQ ID NO: 1, Lung [1]: BDL (below detectable limits (1 μg/g rat; 0.2 μg/g monkey))
Mean Concentration SEQ ID NO: 1, Spleen [1]: 1.0 µg/g
Mean Concentration total metabolites (n + 1 through n − 13), Bone Marrow [1]: BDL (below detectable limits (1 μg/g rat; 0.2 μg/g monkey))
Mean Concentration total metabolites (n + 1 through n − 13), Brain [1]: BDL (below detectable limits (1 μg/g rat; 0.2 μg/g monkey))
Mean Concentration total metabolites (n + 1 through n − 13), Heart [1]: 0.3 µg/g
Mean Concentration total metabolites (n + 1 through n − 13), Kidney [1]: 20.8 µg/g
Mean Concentration total metabolites (n + 1 through n − 13), Liver [1]: 16.9 µg/g
Mean Concentration total metabolites (n + 1 through n − 13), Lung [1]: BDL (below detectable limits (1 μg/g rat; 0.2 μg/g monkey))
Mean Concentration total metabolites (n + 1 through n − 13), Spleen [1]: 1.2 µg/g
Mean Concentration SEQ ID NO: 1, Bone Marrow [2]: 1.8 µg/g
Mean Concentration SEQ ID NO: 1, Brain [2]: BDL (below detectable limits (1 μg/g rat; 0.2 μg/g monkey))
Mean Concentration SEQ ID NO: 1, Heart [2]: BDL (below detectable limits (1 μg/g rat; 0.2 μg/g monkey))
Mean Concentration SEQ ID NO: 1, Kidney [2]: 28.0 µg/g
Mean Concentration SEQ ID NO: 1, Liver [2]: 13.8 µg/g
Mean Concentration SEQ ID NO: 1, Lung [2]: 0.9 µg/g
Mean Concentration SEQ ID NO: 1, Spleen [2]: 1.8 µg/g
Mean Concentration total metabolites (n + 1 through n − 13), Bone Marrow [2]: 3.8 µg/g
Mean Concentration total metabolites (n + 1 through n − 13), Brain [2]: BDL (below detectable limits (1 μg/g rat; 0.2 μg/g monkey))
Mean Concentration total metabolites (n + 1 through n − 13), Heart [2]: BDL (below detectable limits (1 μg/g rat; 0.2 μg/g monkey))
Mean Concentration total metabolites (n + 1 through n − 13), Kidney [2]: 122.8 µg/g
Mean Concentration total metabolites (n + 1 through n − 13), Liver [2]: 42.1 µg/g
Mean Concentration total metabolites (n + 1 through n − 13), Lung [2]: 0.2 µg/g
Mean Concentration total metabolites (n + 1 through n − 13), Spleen [2]: 6.5 µg/g
Mean Concentration SEQ ID NO: 1, Bone Marrow [3]: BDL (below detectable limits (1 μg/g rat; 0.2 μg/g monkey))
Mean Concentration SEQ ID NO: 1, Brain [3]: BDL (below detectable limits (1 μg/g rat; 0.2 μg/g monkey))
Mean Concentration SEQ ID NO: 1, Heart [3]: BDL (below detectable limits (1 μg/g rat; 0.2 μg/g monkey))
Mean Concentration SEQ ID NO: 1, Kidney [3]: 1.0 µg/g
Mean Concentration SEQ ID NO: 1, Liver [3]: BDL (below detectable limits (1 μg/g rat; 0.2 μg/g monkey))
Mean Concentration SEQ ID NO: 1, Lung [3]: BDL (below detectable limits (1 μg/g rat; 0.2 μg/g monkey))
Mean Concentration SEQ ID NO: 1, Spleen [3]: BDL (below detectable limits (1 μg/g rat; 0.2 μg/g monkey))
Mean Concentration total metabolites (n + 1 through n − 13), Bone Marrow [3]: BDL (below detectable limits (1 μg/g rat; 0.2 μg/g monkey))
Mean Concentration total metabolites (n + 1 through n − 13), Brain [3]: BDL (below detectable limits (1 μg/g rat; 0.2 μg/g monkey))
Mean Concentration total metabolites (n + 1 through n − 13), Heart [3]: BDL (below detectable limits (1 μg/g rat; 0.2 μg/g monkey))
Mean Concentration total metabolites (n + 1 through n − 13), Kidney [3]: 3.6 µg/g
Mean Concentration total metabolites (n + 1 through n − 13), Liver [3]: BDL (below detectable limits (1 μg/g rat; 0.2 μg/g monkey))
Mean Concentration total metabolites (n + 1 through n − 13), Lung [3]: BDL (below detectable limits (1 μg/g rat; 0.2 μg/g monkey))
Mean Concentration total metabolites (n + 1 through n − 13), Spleen [3]: BDL (below detectable limits (1 μg/g rat; 0.2 μg/g monkey))
Mean Concentration SEQ ID NO: 1, Bone Marrow [4]: 2.7 µg/g
Mean Concentration SEQ ID NO: 1, Brain [4]: BDL (below detectable limits (1 μg/g rat; 0.2 μg/g monkey))
Mean Concentration SEQ ID NO: 1, Heart [4]: 1.5 µg/g
Mean Concentration SEQ ID NO: 1, Kidney [4]: 31.1 µg/g
Mean Concentration SEQ ID NO: 1, Liver [4]: 19.7 µg/g
Mean Concentration SEQ ID NO: 1, Lung [4]: 1.6 µg/g
Mean Concentration SEQ ID NO: 1, Spleen [4]: 2.6 µg/g
Mean Concentration total metabolites (n + 1 through n − 13), Bone Marrow [4]: 3.5 µg/g
Mean Concentration total metabolites (n + 1 through n − 13), Brain [4]: BDL (below detectable limits (1 μg/g rat; 0.2 μg/g monkey))
Mean Concentration total metabolites (n + 1 through n − 13), Heart [4]: 4.2 µg/g
Mean Concentration total metabolites (n + 1 through n − 13), Kidney [4]: 88.1 µg/g
Mean Concentration total metabolites (n + 1 through n − 13), Liver [4]: 47.9 µg/g
Mean Concentration total metabolites (n + 1 through n − 13), Lung [4]: 2.3 µg/g
Mean Concentration total metabolites (n + 1 through n − 13), Spleen [4]: 7.8 µg/g
Mean Concentration SEQ ID NO: 1, Bone Marrow [5]: 3.6 µg/g
Mean Concentration SEQ ID NO: 1, Brain [5]: BDL (below detectable limits (1 μg/g rat; 0.2 μg/g monkey))
Mean Concentration SEQ ID NO: 1, Heart [5]: BDL (below detectable limits (1 μg/g rat; 0.2 μg/g monkey))
Mean Concentration SEQ ID NO: 1, Kidney [5]: 129.5 µg/g
Mean Concentration SEQ ID NO: 1, Liver [5]: 38.1 µg/g
Mean Concentration SEQ ID NO: 1, Lung [5]: 2.1 µg/g
Mean Concentration SEQ ID NO: 1, Spleen [5]: 3.2 µg/g
Mean Concentration total metabolites (n + 1 through n − 13), Bone Marrow [5]: 6.6 µg/g
Mean Concentration total metabolites (n + 1 through n − 13), Brain [5]: BDL (below detectable limits (1 μg/g rat; 0.2 μg/g monkey))
Mean Concentration total metabolites (n + 1 through n − 13), Heart [5]: 9.4 µg/g
Mean Concentration total metabolites (n + 1 through n − 13), Kidney [5]: 613.5 µg/g
Mean Concentration total metabolites (n + 1 through n − 13), Liver [5]: 105.9 µg/g
Mean Concentration total metabolites (n + 1 through n − 13), Lung [5]: 3.3 µg/g
Mean Concentration total metabolites (n + 1 through n − 13), Spleen [5]: 13.5 µg/g
Mean Concentration SEQ ID NO: 1, Bone Marrow [6]: BDL (below detectable limits (1 μg/g rat; 0.2 μg/g monkey))
Mean Concentration SEQ ID NO: 1, Brain [6]: BDL (below detectable limits (1 μg/g rat; 0.2 μg/g monkey))
Mean Concentration SEQ ID NO: 1, Heart [6]: BDL (below detectable limits (1 μg/g rat; 0.2 μg/g monkey))
Mean Concentration SEQ ID NO: 1, Kidney [6]: 13.3 µg/g
Mean Concentration SEQ ID NO: 1, Liver [6]: 4.7 µg/g
Mean Concentration SEQ ID NO: 1, Lung [6]: BDL (below detectable limits (1 μg/g rat; 0.2 μg/g monkey))
Mean Concentration SEQ ID NO: 1, Spleen [6]: BDL (below detectable limits (1 μg/g rat; 0.2 μg/g monkey))
Mean Concentration total metabolites (n + 1 through n − 13), Bone Marrow [6]: BDL (below detectable limits (1 μg/g rat; 0.2 μg/g monkey))
Mean Concentration total metabolites (n + 1 through n − 13), Brain [6]: BDL (below detectable limits (1 μg/g rat; 0.2 μg/g monkey))
Mean Concentration total metabolites (n + 1 through n − 13), Heart [6]: BDL (below detectable limits (1 μg/g rat; 0.2 μg/g monkey))
Mean Concentration total metabolites (n + 1 through n − 13), Kidney [6]: 68.4 µg/g
Mean Concentration total metabolites (n + 1 through n − 13), Liver [6]: 8.3 µg/g
Mean Concentration total metabolites (n + 1 through n − 13), Lung [6]: BDL (below detectable limits (1 μg/g rat; 0.2 μg/g monkey))
Mean Concentration total metabolites (n + 1 through n − 13), Spleen [6]: BDL (below detectable limits (1 μg/g rat; 0.2 μg/g monkey))
Mean Concentration SEQ ID NO: 1, Bone Marrow [7]: 13.2 µg/g
Mean Concentration SEQ ID NO: 1, Brain [7]: BDL (below detectable limits (1 μg/g rat; 0.2 μg/g monkey))
Mean Concentration SEQ ID NO: 1, Heart [7]: 14.5 µg/g
Mean Concentration SEQ ID NO: 1, Kidney [7]: 86.1 µg/g
Mean Concentration SEQ ID NO: 1, Liver [7]: 51.9 µg/g
Mean Concentration SEQ ID NO: 1, Lung [7]: 13.3 µg/g
Mean Concentration SEQ ID NO: 1, Spleen [7]: 32.7 µg/g
Mean Concentration total metabolites (n + 1 through n − 13), Bone Marrow [7]: 19.5 µg/g
Mean Concentration total metabolites (n + 1 through n − 13), Brain [7]: BDL (below detectable limits (1 μg/g rat; 0.2 μg/g monkey))
Mean Concentration total metabolites (n + 1 through n − 13), Heart [7]: 13.0 µg/g
Mean Concentration total metabolites (n + 1 through n − 13), Kidney [7]: 187 µg/g
Mean Concentration total metabolites (n + 1 through n − 13), Liver [7]: 79.9 µg/g
Mean Concentration total metabolites (n + 1 through n − 13), Lung [7]: 21.8 µg/g
Mean Concentration total metabolites (n + 1 through n − 13), Spleen [7]: 19.9 µg/g
Mean Concentration SEQ ID NO: 1, Bone Marrow [8]: 29.9 µg/g
Mean Concentration SEQ ID NO: 1, Brain [8]: BDL (below detectable limits (1 μg/g rat; 0.2 μg/g monkey))
Mean Concentration SEQ ID NO: 1, Heart [8]: 20.8 µg/g
Mean Concentration SEQ ID NO: 1, Kidney [8]: 286.6 µg/g
Mean Concentration SEQ ID NO: 1, Liver [8]: 91.6 µg/g
Mean Concentration SEQ ID NO: 1, Lung [8]: 18.2 µg/g
Mean Concentration SEQ ID NO: 1, Spleen [8]: 18.4 µg/g
Mean Concentration total metabolites (n + 1 through n − 13), Bone Marrow [8]: 67.4 µg/g
Mean Concentration total metabolites (n + 1 through n − 13), Brain [8]: BDL (below detectable limits (1 μg/g rat; 0.2 μg/g monkey))
Mean Concentration total metabolites (n + 1 through n − 13), Heart [8]: 42.5 µg/g
Mean Concentration total metabolites (n + 1 through n − 13), Kidney [8]: 1373.6 µg/g
Mean Concentration total metabolites (n + 1 through n − 13), Liver [8]: 279.7 µg/g
Mean Concentration total metabolites (n + 1 through n − 13), Lung [8]: 30.0 µg/g
Mean Concentration total metabolites (n + 1 through n − 13), Spleen [8]: 60.8 µg/g
Mean Concentration SEQ ID NO: 1, Bone Marrow [9]: 2.8 µg/g
Mean Concentration SEQ ID NO: 1, Brain [9]: BDL (below detectable limits (1 μg/g rat; 0.2 μg/g monkey))
Mean Concentration SEQ ID NO: 1, Heart [9]: 2.5 µg/g
Mean Concentration SEQ ID NO: 1, Kidney [9]: 48.2 µg/g
Mean Concentration SEQ ID NO: 1, Liver [9]: 19.8 µg/g
Mean Concentration SEQ ID NO: 1, Lung [9]: 2.1 µg/g
Mean Concentration SEQ ID NO: 1, Spleen [9]: 1.4 µg/g
Mean Concentration total metabolites (n + 1 through n − 13), Bone Marrow [9]: 4.4 µg/g
Mean Concentration total metabolites (n + 1 through n − 13), Brain [9]: BDL (below detectable limits (1 μg/g rat; 0.2 μg/g monkey))
Mean Concentration total metabolites (n + 1 through n − 13), Heart [9]: 7.2 µg/g
Mean Concentration total metabolites (n + 1 through n − 13), Kidney [9]: 287.6 µg/g
Mean Concentration total metabolites (n + 1 through n − 13), Liver [9]: 68.7 µg/g
Mean Concentration total metabolites (n + 1 through n − 13), Lung [9]: 3.8 µg/g
Mean Concentration total metabolites (n + 1 through n − 13), Spleen [9]: 2.2 µg/g
Concentrations in the brain (lower limit for detection 1 μg/g): below the limits of detection
